Assay results as given in patent US9255100B2 (BAYER INTELLECTUAL PROPERTY GMBH, priority 2010, dated 2016).

Target: T1, N-terminally GST-tagged human full length recombinant Mps-1 kinase (Homo sapiens, UniProt P33981)
T1 construct: N-terminally GST-tagged human full length recombinant Mps-1 kinase; purchased Invitrogen, Karslruhe, Germany PV4071
T1 sequence (P33981 1-857): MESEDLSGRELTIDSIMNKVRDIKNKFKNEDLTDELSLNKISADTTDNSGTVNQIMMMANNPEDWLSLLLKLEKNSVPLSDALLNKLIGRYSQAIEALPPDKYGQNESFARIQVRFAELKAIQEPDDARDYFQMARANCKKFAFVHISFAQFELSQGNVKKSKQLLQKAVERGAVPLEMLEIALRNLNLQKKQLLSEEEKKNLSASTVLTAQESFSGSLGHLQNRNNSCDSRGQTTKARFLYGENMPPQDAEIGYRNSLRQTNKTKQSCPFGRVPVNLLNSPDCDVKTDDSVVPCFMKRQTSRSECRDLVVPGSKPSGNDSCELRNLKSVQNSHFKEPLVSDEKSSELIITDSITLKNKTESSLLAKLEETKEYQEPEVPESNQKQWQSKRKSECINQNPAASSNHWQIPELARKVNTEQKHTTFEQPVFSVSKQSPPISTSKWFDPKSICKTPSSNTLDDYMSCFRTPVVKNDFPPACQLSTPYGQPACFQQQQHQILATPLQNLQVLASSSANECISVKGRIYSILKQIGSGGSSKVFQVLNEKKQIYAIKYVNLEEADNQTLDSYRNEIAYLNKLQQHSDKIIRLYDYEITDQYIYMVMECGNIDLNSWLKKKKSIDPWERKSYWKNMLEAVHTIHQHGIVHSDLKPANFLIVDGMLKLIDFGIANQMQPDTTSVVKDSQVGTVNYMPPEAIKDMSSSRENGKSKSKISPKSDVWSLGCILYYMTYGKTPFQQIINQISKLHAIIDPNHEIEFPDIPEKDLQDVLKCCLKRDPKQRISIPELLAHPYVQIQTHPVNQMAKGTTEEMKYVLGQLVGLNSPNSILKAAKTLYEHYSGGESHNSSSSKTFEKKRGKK
Test: Mps-1 kinase assay (TR-FRET)
Format: biochemical
Details: Mps1 IC50 [nM], 10 μM ATP, 1 μM peptide substrate, 60 min at 22° C.
Outline: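 Compounds were tested against recombinant full-length Mps-1 bearing an N-terminal GST tag, about 1 nM final, with a biotinylated amide-capped peptide as substrate. Detection reagents were then bound for 1 h at 22° C and the product read by TR-FRET.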

IC50 [nM] | SMILES
< 1 | CC(C)CNc1cc(-c2cccc(C(=O)NC(C)C)c2)nn2c(-c3ccc(C(=O)NC4CC4)cc3)cnc12 [Example 134, 3-{3-[4-(Cyclopropylcarbamoyl)phenyl]-8-[(2-methylpropyl)amino]imidazo[1,2-b]pyridazin-6-yl}-N-(propan-2-yl) benzamide]
< 1 | CC(C)CNc1cc(-c2cccc(C(=O)NC3CC3)c2)nn2c(-c3ccc(C(=O)NC4CC4)cc3)cnc12 [Example 135, N-cyclopropyl-3-{3-[4-(cyclopropylcarbamoyl)phenyl]-8-[(2-methylpropyl)amino]imidazo[1,2-b]pyridazin-6-yl}benzamide]
4 | CC(C)CNc1cc(-c2ccc3c(c2)OCO3)nn2c(-c3ccc(C(=O)NC4CC4)cc3)cnc12 [Example 136, 4-{6-(1,3-Benzodioxol-5-yl)-8-[(2-methylpropyl)amino]imidazo[1,2-b]pyridazin-3-yl}-N-cyclopropylbenzamide]
< 1 | CC(C)CNc1cc(-c2ccnn2C)nn2c(-c3ccc(C(=O)NC4CC4)cc3)cnc12 [Example 137, N-cyclopropyl-4-{8-[(2-methylpropyl)amino]-6-(1-methyl-1H-pyrazol-5-yl)imidazo[1,2-b]pyridazin-3-yl}benzamide]
2 | CC(C)CNc1cc(-c2cccnc2)nn2c(-c3ccc(C(=O)NC4CC4)cc3)cnc12 [Example 138, N-cyclopropyl-4-{8-[(2-methylpropyl)amino]-6-(pyridin-3-yl)imidazo [1,2-b]pyridazin-3-yl} benzamide]
3.7 | CC(C)CNc1cc(-c2ccccc2O)nn2c(-c3ccc(C(=O)NC4CC4)cc3)cnc12 [Example 139, N-cyclopropyl-4-{6-(2-hydroxyphenyl)-8-[(2-methylpropyl)amino]imidazo[1,2-b]pyridazin-3-yl}benzamide]
3.9 | CC(C)CNc1cc(-c2cccc(O)c2)nn2c(-c3ccc(C(=O)NC4CC4)cc3)cnc12 [Example 140, N-cyclopropyl-4-{6-(3-hydroxyphenyl)-8-[(2-methylpropyl)amino]imidazo[1,2-b]pyridazin-3-yl}benzamide]
2.4 | CC(C)CNc1cc(-c2ccc(O)cc2)nn2c(-c3ccc(C(=O)NC4CC4)cc3)cnc12 [Example 141, N-cyclopropyl-4-{6-(4-hydroxyphenyl)-8-[(2-methylpropyl)amino]imidazo[1,2-b]pyridazin-3-yl}benzamide]
1.4 | CC(C)CNc1cc(-c2ccc(S(C)(=O)=O)cc2)nn2c(-c3ccc(C(=O)NC4CC4)cc3)cnc12 [Example 142, N-cyclopropyl-4-{8-[(2-methylpropyl)amino]-6-[4-(methylsulfonyl)phenyl]imidazo[1,2-b]pyridazin-3-yl}benzamide]
4.7 | CC(C)CNc1cc(-c2cncnc2)nn2c(-c3ccc(C(=O)NC4CC4)cc3)cnc12 [Example 143, N-cyclopropyl-4-{8-[(2-methylpropyl)amino]-6-(pyrimidin-5-yl)imidazo [1,2-b]pyridazin-3-yl} benzamide]
2.3 | CC(C)CNc1cc(-c2ccc3ncccc3c2)nn2c(-c3ccc(C(=O)NC4CC4)cc3)cnc12 [Example 144, N-cyclopropyl-4-{8-[(2-methylpropyl)amino]-6-(quinolin-6-yl)imidazo [1,2-b]pyridazin-3-yl} benzamide]
< 1 | CC(C)CNc1cc(-c2ccc3nccn3c2)nn2c(-c3ccc(C(=O)NC4CC4)cc3)cnc12 [Example 145, N-cyclopropyl-4-{6-(imidazo[1,2-a]pyridin-6-yl)-8-[(2-methylpropyl)amino]imidazo[1,2-b]pyridazin-3-yl}benzamide]
3.8 | CNC(=O)Nc1ccc(-c2cc(NCC(C)C)c3ncc(-c4ccc(C(=O)NC5CC5)cc4)n3n2)cc1 [Example 146, N-cyclopropyl-4-(6-{4-[(methylcarbamoyl)amino]phenyl}-8-[(2-methylpropyl)amino]imidazo[1,2-b]pyridazin-3-yl)benzamide]
2.2 | CC(C)CNc1cc(-c2cncc(C#N)c2)nn2c(-c3ccc(C(=O)NC4CC4)cc3)cnc12 [Example 147, 4-{6-(5-Cyanopyridin-3-yl)-8-[(2-methylpropyl)amino]imidazo[1,2-b]pyridazin-3-yl}-N-cyclopropylbenzamide]
1.5 | Cc1nnc(-c2ccc(-c3cc(NCC(C)C)c4ncc(-c5ccc(C(=O)NC6CC6)cc5)n4n3)cc2)o1 [Example 148, N-cyclopropyl-4-{6-[4-(5-methyl-1,3,4-oxadiazol-2-yl)phenyl]-8-[(2-methylpropyl)amino]imidazo[1,2-b]pyridazin-3-yl}benzamide]
2.2 | CNC(=O)c1ccc(-c2cc(NCC(C)C)c3ncc(-c4ccc(C(=O)NC5CC5)cc4)n3n2)cn1 [Example 149, 5-{3-[4-(Cyclopropylcarbamoyl)phenyl]-8-[(2-methylpropyl)amino]imidazo[1,2-b]pyridazin-6-yl}-N-methylpyridine-2-carboxamide]
3.7 | CC(C)CNc1cc(-c2ccc(NC(=O)N(C)C)cc2)nn2c(-c3ccc(C(=O)NC4CC4)cc3)cnc12 [Example 150, N-cyclopropyl-4-(6-{4-[(dimethylcarbamoyl)amino]phenyl}-8-[(2-methylpropyl)amino]imidazo[1,2-b]pyridazin-3-yl)benzamide]
3.1 | CC(C)CNc1cc(-c2ccc3[nH]c(=O)[nH]c3c2)nn2c(-c3ccc(C(=O)NC4CC4)cc3)cnc12 [Example 151, N-cyclopropyl-4-{8-[(2-methylpropyl)amino]-6-(2-oxo-2,3-dihydro-1H-benzimidazol-5-yl)imidazo[1,2-b]pyridazin-3-yl}benzamide]
3.6 | Cc1cc(-c2cnc3c(NCC(C)(C)O)cc(-c4cccc(CO)c4)nn23)ccc1C(=O)NC1CC1 [Example 153, N-cyclopropyl-4-{6-[3-(hydroxymethyl)phenyl]-8-[(2-hydroxy-2-methylpropyl)amino]imidazo[1,2-b]pyridazin-3-yl}-2-methylbenzamide]
25 | Cc1cc(-c2cnc3c(NCC(C)(C)O)cc(-c4cnn(C)c4)nn23)ccc1C(=O)NC1CC1 [Example 154, N-cyclopropyl-4-{8-[(2-hydroxy-2-methylpropyl)amino]-6-(1-methyl-1H-pyrazol-4-yl)imidazo[1,2-b]pyridazin-3-yl}-2-methylbenzamide]
3.6 | Cc1cc(-c2cnc3c(NCC(C)(C)O)cc(-c4ccc(CO)cc4)nn23)ccc1C(=O)NC1CC1 [Example 155, N-cyclopropyl-4-{6-[4-(hydroxymethyl)phenyl]-8-[(2-hydroxy-2-methylpropyl)amino]imidazo[1,2-b]pyridazin-3-yl}-2-methylbenzamide]
5.1 | Cc1cc(-c2cnc3c(NCC(C)(C)O)cc(-c4cccnc4)nn23)ccc1C(=O)NC1CC1 [Example 156, N-cyclopropyl-4-{8-[(2-hydroxy-2-methylpropyl)amino]-6-(pyridin-3-yl)imidazo[1,2-b]pyridazin-3-yl}-2-methylbenzamide]
12 | Cc1cc(-c2cnc3c(NCC(C)(C)O)cc(-c4ccoc4)nn23)ccc1C(=O)NC1CC1 [Example 157, N-cyclopropyl-4-{6-(furan-3-yl)-8-[(2-hydroxy-2-methylpropyl)amino]imidazo[1,2-b]pyridazin-3-yl}-2-methylbenzamide]
6.4 | CCOc1ccc(-c2cc(NCC(C)(C)O)c3ncc(-c4ccc(C(=O)NC5CC5)c(C)c4)n3n2)cn1 [Example 158, N-cyclopropyl-4-{6-(6-ethoxypyridin-3-yl)-8-[(2-hydroxy-2-methylpropyl)amino]imidazo[1,2-b]pyridazin-3-yl}-2-methylbenzamide]
14.8 | Cc1cc(-c2cnc3c(NCC(C)(C)O)cc(-c4c(C)noc4C)nn23)ccc1C(=O)NC1CC1 [Example 159, N-cyclopropyl-4-{6-(3,5-dimethyl-1,2-oxazol-4-yl)-8-[(2-hydroxy-2-methylpropyl)amino]imidazo[1,2-b]pyridazin-3-yl}-2-methylbenzamide]
13.6 | Cc1cc(-c2cnc3c(NCC(C)(C)O)cc(-c4cc[nH]n4)nn23)ccc1C(=O)NC1CC1 [Example 160, N-cyclopropyl-4-{8-[(2-hydroxy-2-methylpropyl)amino]-6-(1H-pyrazol-3-yl)imidazo[1,2-b]pyridazin-3-yl}-2-methylbenzamide]
6.2 | Cc1cc(-c2cnc3c(NCC(C)(C)O)cc(-c4cccn4C)nn23)ccc1C(=O)NC1CC1 [Example 161, N-cyclopropyl-4-{8-[(2-hydroxy-2-methylpropyl)amino]-6-(1-methyl-1H-pyrrol-2-yl)imidazo[1,2-b]pyridazin-3-yl}-2-methylbenzamide]
